Results from patent US20240381872A1, “SUBSTITUTED 2,3-DIHYDRO[1,3]THIAZOLO[4,5-B]PYRIDINES, SALTS THEREOF AND THEIR USE AS HERBICIDALLY ACTIVE SUBSTANCES” (BAYER AKTIENGESELLSCHAFT, priority 2021, published 2024).

Tests used:
Assay type in all cases: in vivo
[1] = test system: Abutilon theophrasti (ABUTH); test: Herbicidal pre-emergence action, section A (Table A1); settings: visual grading after ca. 3 weeks vs untreated controls
Excerpt: Seeds of mono- and dicotyledonous weed plants were sown in plastic pots (double sowings with one species of mono- and one species of dicotyledonous weed plants per pot), in sandy loam, and covered with soil. The compounds according to the invention, formulated in the form of wettable powders (WP) or as emulsifiable concentrates (EC), were applied to the surface of the covering soil as aqueous suspension or emulsion, with the addition of 0.5% of an additive, at an application rate of 600 l of water per hectare (converted). Following treatment, the pots were placed in a greenhouse and kept under optimum growth conditions for the test plants. The visual grading of the damage to the test plants was carried out after ca. 3 weeks in comparison to untreated controls (herbicidal effect in percent (%): 100% effect=plants have died off, 0% effect=as control plants).

[2] = test system: Alopecurus myosuroides (ALOMY); test: Herbicidal pre-emergence action, section A (Table A2); settings: application rate 1280 g/ha; visual grading after ca. 3 weeks vs untreated controls
How it was run: (§1)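 Percent herbicidal effect, visually graded about 3 weeks post-treatment against untreated pots, reflects pre-emergence application of WP or EC formulations to the soil surface over seeds sown in sandy loam, using 0.5% additive and 600 l of water per hectare.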

[3] = test system: Echinochloa crus-galli (ECHCG); test: Herbicidal pre-emergence action, section A (Table A3); settings: visual grading after ca. 3 weeks vs untreated controls
How it was run: as §1

Kochia scoparia (KCHSC) [4] = test: Herbicidal pre-emergence action, section A (Table A4); settings: visual grading after ca. 3 weeks vs untreated controls
How it was run: as §1

Lolium rigidum (LOLRI) [5] = test: Herbicidal pre-emergence action, section A (Table A5); settings: visual grading after ca. 3 weeks vs untreated controls
How it was run: as §1

[6] = test system: Matricaria inodora (MATIN); test: Herbicidal pre-emergence action, section A (Table A6); settings: visual grading after ca. 3 weeks vs untreated controls
How it was run: as §1

Poa annua (POAAN) [7] = test: Herbicidal pre-emergence action, section A (Table A7); settings: visual grading after ca. 3 weeks vs untreated controls; for pre-emergence activity against POAAN in %: application rate 320 g/ha
How it was run: as §1

Setaria viridis (SETVI) [8] = test: Herbicidal pre-emergence action, section A (Table A8); settings: application rate 1280 g/ha
How it was run: as §1

Stellaria media (STEME) [9] = test: Herbicidal pre-emergence action, section A (Table A9); settings: application rate 320 g/ha
How it was run: as §1

Veronica persica (VERPE) [10] = test: Herbicidal pre-emergence action, section A (Table A10); settings: application rate 1280 g/ha
How it was run: as §1

[11] = test system: Amaranthus retroflexus (AMARE); test: Herbicidal pre-emergence action, section A (Table A11); settings: for pre-emergence activity against AMARE in %: application rate 320 g/ha
How it was run: as §1

[12] = test system: Digitaria sanguinalis (DIGSA); test: Herbicidal pre-emergence action, section A (Table A12); settings: application rate 320 g/ha
How it was run: as §1

[13] = test system: Abutilon theophrasti (ABUTH); test: Herbicidal post-emergence action, section B (Table B1); settings: rated visually after about 3 weeks
How it was run: (§2)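 In this greenhouse assay, compounds in WP or EC form were applied post-emergence with 0.5% additive at a water rate of 600 liters per hectare. Treatment took place at the one-leaf stage, and injury was rated visually about 3 weeks later against untreated plants.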

Kochia scoparia (KCHSC) [14] = test: Herbicidal post-emergence action, section B (Table B4); settings: visual rating about 3 weeks after treatment vs untreated controls
How it was run: as §2

Lolium rigidum (LOLRI) [15] = test: Herbicidal post-emergence action, section B (Table B5); settings: application rate 1280 g/ha, visual rating about 3 weeks after treatment vs untreated controls
Procedure: (§3) Seeds of mono- and dicotyledonous weed plants were placed in plastic pots in sandy loam soil (doubly sown with in each case one species of mono- or dicotyledonous weed plants per pot), covered with soil and cultivated in a greenhouse under controlled growth conditions. 2 to 3 weeks after sowing, the test plants were treated at the one-leaf stage. The compounds of the invention, formulated in the form of wettable powders (WP) or as emulsion concentrates (EC), were applied onto the green parts of the plants as aqueous suspension or emulsion with addition of 0.5% additive at a water application rate of 600 liters per hectare (converted). After the test plants had been kept in the greenhouse under optimum growth conditions for about 3 weeks, the activity of the preparations was rated visually in comparison to untreated controls. For example, 100% activity=the plants have died, 0% activity=like control plants.

Poa annua (POAAN) [16] = test: Herbicidal post-emergence action, section B (Table B7); settings: visual rating about 3 weeks after treatment vs untreated controls
How it was run: as §2

Setaria viridis (SETVI) [17] = test: Herbicidal post-emergence action, section B (Table B8); settings: application rate 1280 g/ha, visual rating about 3 weeks after treatment vs untreated controls
How it was run: as §2

Stellaria media (STEME) [18] = test: Herbicidal post-emergence action, section B (Table B9); settings: application rate 320 g/ha, visual rating about 3 weeks after treatment vs untreated controls
How it was run: as §2

[19] = test system: Amaranthus retroflexus (AMARE); test: Herbicidal post-emergence action, section B (Table B11); settings: visual rating about 3 weeks after treatment vs untreated controls
How it was run: as §2

[20] = test system: Echinochloa crus-galli (ECHCG); test: Herbicidal post-emergence action, section B (Table B3); settings: application rate 1280 g/ha, rated visually after about 3 weeks
How it was run: as §2

Veronica persica (VERPE) [21] = test: Herbicidal post-emergence action, section B (Table B10); settings: Veronica persica, post-emergence, 504 h; application rate 320 g/ha; visual rating about 3 weeks after treatment vs untreated controls; read-out: post-emergence activity against VERPE in %
How it was run: as §2

[22] = test system: Digitaria sanguinalis (DIGSA); test: Herbicidal post-emergence action, section B (Table B12); settings: Digitaria sanguinalis, post-emergence, 504 h; application rate 1280 g/ha; visual rating about 3 weeks after treatment vs untreated controls; read-out: post-emergence activity against DIGSA in %
Procedure: as §3

[23] = test system: Matricaria inodora (MATIN); test: Herbicidal post-emergence action, section B (Table B6); settings: application rate 1280 g/ha; visual rating about 3 weeks after treatment vs untreated controls
Procedure: as §3

## Cc1cc2c(nc1-c1cccc(F)c1F)N(C(=O)C1(C)CC(Cl)=NO1)CS2 (centres unmarked) [Example I-152]
[1]; application rate 320 g/ha
  pre-emergence activity against ABUTH in %: 90%
[2]
  pre-emergence activity against ALOMY in %: 90%
[3]; application rate 1280 g/ha
  pre-emergence activity against ECHCG in %: 90%
Kochia scoparia (KCHSC) [4]; application rate 1280 g/ha
  pre-emergence activity against KCHSC in %: 100%
Lolium rigidum (LOLRI) [5]; application rate 1280 g/ha
  pre-emergence activity against LOLRI in %: 100%
[6]; application rate 1280 g/ha
  pre-emergence activity against MATIN in %: 90%
Poa annua (POAAN) [7]
  pre-emergence activity against POAAN in %: 100%
Setaria viridis (SETVI) [8]
  pre-emergence activity against SETVI in %: 100%
Stellaria media (STEME) [9]
  pre-emergence activity against STEME in %: 90%
Veronica persica (VERPE) [10]
  pre-emergence activity against VERPE in %: 90%
[11]
  pre-emergence activity against AMARE in %: 100%
[12]
  pre-emergence activity against DIGSA in %: 90%
[13]; application rate 320 g/ha
  post-emergence activity against ABUTH in %: 90%
Kochia scoparia (KCHSC) [14]; application rate 1280 g/ha
  post-emergence activity against KCHSC in %: 90%
Lolium rigidum (LOLRI) [15]
  post-emergence activity against LOLRI in %: 90%
Poa annua (POAAN) [16]; application rate 1280 g/ha
  post-emergence activity against POAAN in %: 90%
Setaria viridis (SETVI) [17]
  post-emergence activity against SETVI in %: 90%
Stellaria media (STEME) [18]
  post-emergence activity against STEME in %: 90%
[19]; application rate 1280 g/ha
  post-emergence activity against AMARE in %: 100%

## NB1OB(N2CSc3cc(Br)c(-c4ccccc4Cl)nc32)O1 [Example I-048, 4-[6-bromo-5-(2-chlorophenyl)-2,3-dihydro[1,3]thiazolo[4,5-b]pyridin-3(2H)-yl]-1,3,2,4-dioxa-diboretan-2-amine]
[3]; Echinochloa crus-galli, pre-emergence, 504 h, application rate 320 g/ha, read-out: pre-emergence activity against ECHCG in %
  pest or weed control at 320 g/ha: 100%
Kochia scoparia (KCHSC) [4]; Bassia scoparia, pre-emergence, 504 h, application rate 1280 g/ha, read-out: pre-emergence activity against KCHSC in %
  pest or weed control at 1280 g/ha: 90%
Lolium rigidum (LOLRI) [5]; Lolium rigidum, pre-emergence, 504 h, application rate 1280 g/ha, read-out: pre-emergence activity against LOLRI in %
  pest or weed control at 1280 g/ha: 100%
[6]; Tripleurospermum inodorum, pre-emergence, 504 h, application rate 1280 g/ha, read-out: pre-emergence activity against MATIN in %
  pest or weed control at 1280 g/ha: 90%
Poa annua (POAAN) [7]; Poa annua, pre-emergence, 504 h, application rate 1280 g/ha, read-out: pre-emergence activity against POAAN in %
  pest or weed control at 1280 g/ha: 100%
Setaria viridis (SETVI) [8]; Setaria viridis, 504 h, read-out: pre-emergence activity against SETVI in %
  pest or weed control at 1280 g/ha: 100%
[11]; Amaranthus retroflexus, 504 h, application rate 1280 g/ha, read-out: pre-emergence activity against AMARE in %
  pest or weed control at 1280 g/ha: 90%
[12]; Digitaria sanguinalis, 504 h, read-out: pre-emergence activity against DIGSA in %
  pest or weed control at 320 g/ha: 100%
[13]; Abutilon theophrasti, 504 h, application rate 1280 g/ha, read-out: post-emergence activity against ABUTH in %
  pest or weed control at 1280 g/ha: 90%
[20]; Echinochloa crus-galli, 504 h, read-out: post-emergence activity against ECHCG in %
  pest or weed control at 1280 g/ha: 90%
Kochia scoparia (KCHSC) [14]; Bassia scoparia, post-emergence, 504 h, application rate 320 g/ha, read-out: post-emergence activity against KCHSC in %
  pest or weed control at 320 g/ha: 90%
Lolium rigidum (LOLRI) [15]; Lolium rigidum, post-emergence, 504 h, read-out: post-emergence activity against LOLRI in %
  pest or weed control at 1280 g/ha: 90%
Poa annua (POAAN) [16]; Poa annua, post-emergence, 504 h, application rate 320 g/ha, read-out: post-emergence activity against POAAN in %
  pest or weed control at 320 g/ha: 90%
Setaria viridis (SETVI) [17]; Setaria viridis, post-emergence, 504 h, read-out: post-emergence activity against SETVI in %
  pest or weed control at 1280 g/ha: 90%
Stellaria media (STEME) [18]; Stellaria media, post-emergence, 504 h, read-out: post-emergence activity against STEME in %
  pest or weed control at 320 g/ha: 90%
Veronica persica (VERPE) [21]
  pest or weed control at 320 g/ha: 90%
[19]; Amaranthus retroflexus, post-emergence, 504 h, application rate 320 g/ha, read-out: post-emergence activity against AMARE in %
  pest or weed control at 320 g/ha: 90%
[22]
  pest or weed control at 1280 g/ha: 90%

## COC(=O)CS(=O)(=O)N1CSc2cc(C)c(-c3ccccc3F)nc21 [Example I-121]
[1]; application rate 1280 g/ha
  pre-emergence activity against ABUTH in %: 90%
[2]
  pre-emergence activity against ALOMY in %: 90%
[3]; application rate 320 g/ha
  pre-emergence activity against ECHCG in %: 100%
Kochia scoparia (KCHSC) [4]; application rate 320 g/ha
  pre-emergence activity against KCHSC in %: 90%
Lolium rigidum (LOLRI) [5]; application rate 320 g/ha
  pre-emergence activity against LOLRI in %: 100%
[6]; application rate 320 g/ha
  pre-emergence activity against MATIN in %: 90%
Poa annua (POAAN) [7]
  pre-emergence activity against POAAN in %: 100%
Setaria viridis (SETVI) [8]
  pre-emergence activity against SETVI in %: 100%
Stellaria media (STEME) [9]
  pre-emergence activity against STEME in %: 90%
Veronica persica (VERPE) [10]
  pre-emergence activity against VERPE in %: 90%
[11]
  pre-emergence activity against AMARE in %: 90%
[12]
  pre-emergence activity against DIGSA in %: 100%
[20]
  post-emergence activity against ECHCG in %: 90%
[23]
  post-emergence activity against MATIN in %: 90%
Poa annua (POAAN) [16]; application rate 320 g/ha
  post-emergence activity against POAAN in %: 90%
Setaria viridis (SETVI) [17]
  post-emergence activity against SETVI in %: 90%
